# Assay results: PubChem BioAssay AID330 (DTP/NCI, 2004)
# Values joined by “and” are separate entries in the source; they are usually repeats but may differ in a detail not shown here. Identical values can stand only once. Toxic doses and inconclusive results are not listed.
# System: P388 leukemia ip, CD2F1 mice, survival T/C
# Assay: NCI In Vivo Anticancer Drug Screen. Data for tumor model P388 Leukemia (intraperitoneal) in CD2F1 (CDF1) mice
# Conditions: endpoint: median survival time, higher = longer survival
# Outline: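 Mice carrying the transplanted tumor received test compound or vehicle. Survival was recorded in each group, and the value is the treated-group measurement divided by that of the vehicle-treated control group.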
# [1] = dose: 50.0 mg/kg/injection, schedule: Q01DX005 (ip), vehicle: saline with Tween-80
# [2] = dose: 60.0 mg/kg/injection, schedule: Q01DX005 (ip), vehicle: saline with Tween-80
# [3] = dose: 120.0 mg/kg/injection, schedule: Q01DX005 (ip), vehicle: saline with Tween-80
# [4] = dose: 240.0 mg/kg/injection, schedule: Q01DX005 (ip), vehicle: saline with Tween-80
# [5] = dose: 12.5 mg/kg/injection, schedule: Q01DX009 (ip), vehicle: saline with Tween-80
# [6] = dose: 25.0 mg/kg/injection, schedule: Q01DX009 (ip), vehicle: saline with Tween-80
# [7] = dose: 50.0 mg/kg/injection, schedule: Q01DX009 (ip), vehicle: saline with Tween-80
# [8] = dose: 100.0 mg/kg/injection, schedule: Q01DX009 (ip), vehicle: saline with Tween-80
# [9] = dose: 50.0 mg/kg/injection, schedule: Q01DX009 (ip), vehicle: saline
# [10] = dose: 50.0 mg/kg/injection, schedule: Q01DX009 (ip), vehicle: Klucel (hydroxypropylcellulose) (HPC)
# [11] = dose: 100.0 mg/kg/injection, schedule: Q01DX001 (ip), vehicle: saline with Tween-80
# [12] = dose: 200.0 mg/kg/injection, schedule: Q01DX001 (ip), vehicle: saline with Tween-80
smiles,measurement,setting,value
COC(=O)C1(c2ccccc2)OP2(N(C)C)(OC1(C(=O)OC)c1ccccc1)N(C)CCN2C (stereo not drawn),T/C,"dose: 50.0 mg/kg/injection, schedule: Q01DX005 (ip), vehicle: saline + Tween-80 + alcohol",104 % of control
same,T/C,[1],102 % of control
same,T/C,"dose: 100.0 mg/kg/injection, schedule: Q01DX005 (ip), vehicle: saline + Tween-80 + alcohol",100 % of control
same,T/C,"dose: 100.0 mg/kg/injection, schedule: Q01DX005 (ip), vehicle: saline with Tween-80",102 % of control
same,T/C,"dose: 200.0 mg/kg/injection, schedule: Q01DX005 (ip), vehicle: saline + Tween-80 + alcohol",100 % of control
same,T/C,"dose: 200.0 mg/kg/injection, schedule: Q01DX005 (ip), vehicle: saline with Tween-80",105 % of control
O=C(CCc1nc2ccccc2[nH]1)C1Cc2ccccc2C1=O (stereo not drawn),T/C,[2],103 % of control
same,T/C,[3],104 % of control
same,T/C,[4],103 % of control
CC(C)(C)C(=O)Nc1c(Cl)c(C2CC2)nn1-c1ccccc1,T/C,[2],100 % of control
same,T/C,[3],102 % of control
same,T/C,[4],90 % of control
CC(=O)NC1=C(O)C2C(c3ccc(C)cc3)C(C#N)C(=O)N2C1=O (stereo not drawn),T/C,"dose: 100.0 mg/kg/injection, schedule: Q01DX001 (ip), vehicle: saline",105 % of control
same,T/C,"dose: 200.0 mg/kg/injection, schedule: Q01DX001 (ip), vehicle: saline",97 % of control
same,T/C,"dose: 400.0 mg/kg/injection, schedule: Q01DX001 (ip), vehicle: saline",99 % of control
COP(=S)(OC)SCSc1ccc(Cl)cc1,T/C,[5],89 % of control
same,T/C,[6],91 % of control
CC1CN1P(=O)(N1CC=CCC1)N1CC1C (stereo not drawn),T/C,"dose: 22.0 mg/kg/injection, schedule: Q04DX003 (ip), vehicle: saline",100 % of control
same,T/C,"dose: 33.0 mg/kg/injection, schedule: Q01DX009 (ip), vehicle: saline",150 % of control
same,T/C,"dose: 33.0 mg/kg/injection, schedule: Q04DX003 (ip), vehicle: saline",113 % of control
same,T/C,"dose: 50.0 mg/kg/injection, schedule: Q04DX003 (ip), vehicle: saline",122 % of control
same,T/C,"dose: 75.0 mg/kg/injection, schedule: Q04DX003 (ip), vehicle: saline",150 % of control
O=S(=O)(O)CNc1ccc(Cl)cc1,T/C,[7],113 % of control
same,T/C,[8],113 % of control
same,T/C,"dose: 200.0 mg/kg/injection, schedule: Q01DX009 (ip), vehicle: saline with Tween-80",106 % of control
NNC(=O)CNC(=O)Nc1n[nH]c(=S)s1,T/C,[7],101 % of control
same,T/C,[8],95 % of control
N/C(=N\S(=O)(=O)c1cc(C(F)(F)F)cc(C(F)(F)F)c1)c1ccncc1,T/C,[7],86 % of control
same,T/C,[8],90 % of control
C1N2CN3CN1CP(C2)C3,T/C,[9],112 % of control
same,T/C,"dose: 100.0 mg/kg/injection, schedule: Q01DX009 (ip), vehicle: saline",115 % of control
same,T/C,"dose: 200.0 mg/kg/injection, schedule: Q01DX009 (ip), vehicle: saline",106 % of control
O=C1CSC(=Nc2ccccc2F)N1c1ccccc1F,T/C,[10],110 % of control
same,T/C,"dose: 100.0 mg/kg/injection, schedule: Q01DX009 (ip), vehicle: Klucel (hydroxypropylcellulose) (HPC)",107 % of control
O=C1C=C(Sc2ccc3ccccc3c2)C(=O)c2ccccc21,T/C,"dose: 3.13 mg/kg/injection, schedule: Q01DX009 (ip), vehicle: saline with Tween-80",101 % of control
same,T/C,"dose: 6.25 mg/kg/injection, schedule: Q01DX009 (ip), vehicle: saline with Tween-80",105 % of control
same,T/C,[5],104 % of control
same,T/C,[6],95 % of control
same,T/C,[7],104 % of control
[CH3][Sn]([CH3])([CH3])[N]=C=[N][Sn]([CH3])([CH3])[CH3],T/C,"dose: 0.4 mg/kg/injection, schedule: Q01DX005 (ip), vehicle: saline",100 % of control
same,T/C,"dose: 0.8 mg/kg/injection, schedule: Q01DX005 (ip), vehicle: saline",101 % of control
CS(=O)(=O)NC1CC(=O)N(Cc2ccccc2)C1=O (stereo not drawn),T/C,"dose: 25.0 mg/kg/injection, schedule: Q01DX005 (ip), vehicle: saline",91 % of control
same,T/C,"dose: 50.0 mg/kg/injection, schedule: Q01DX005 (ip), vehicle: saline",99 % of control
same,T/C,"dose: 100.0 mg/kg/injection, schedule: Q01DX005 (ip), vehicle: saline",105 % of control
CC(=O)/C(=C\c1ccccc1Cl)C(=O)CCN(C)C,T/C,"dose: 40.0 mg/kg/injection, schedule: Q01DX005 (ip), vehicle: saline",115 % of control
same,T/C,"dose: 60.0 mg/kg/injection, schedule: Q01DX005 (ip), vehicle: saline",107 % of control and 112 % of control
same,T/C,"dose: 120.0 mg/kg/injection, schedule: Q01DX005 (ip), vehicle: saline",121 % of control
same,T/C,"dose: 240.0 mg/kg/injection, schedule: Q01DX005 (ip), vehicle: saline",122 % of control
COc1cccc(C=Nc2ccccc2O)c1O.[O]=[V],T/C,"dose: 6.25 mg/kg/injection, schedule: Q01DX009 (ip), vehicle: Klucel (hydroxypropylcellulose) (HPC)",98 % of control and 107 % of control
same,T/C,"dose: 12.5 mg/kg/injection, schedule: Q01DX009 (ip), vehicle: Klucel (hydroxypropylcellulose) (HPC)",106 % of control and 115 % of control
same,T/C,"dose: 25.0 mg/kg/injection, schedule: Q01DX009 (ip), vehicle: Klucel (hydroxypropylcellulose) (HPC)",100 % of control and 118 % of control
same,T/C,[10],91 % of control
[Cl][Pt].c1ccc([PH+](CCC[PH+](c2ccccc2)c2ccccc2)CCC[PH+](c2ccccc2)c2ccccc2)cc1,T/C,"dose: 12.5 mg/kg/injection, schedule: Q04DX003 (ip), vehicle: saline with Tween-80",109 % of control
same,T/C,"dose: 25.0 mg/kg/injection, schedule: Q04DX003 (ip), vehicle: saline with Tween-80",109 % of control
same,T/C,"dose: 50.0 mg/kg/injection, schedule: Q04DX003 (ip), vehicle: saline with Tween-80",97 % of control
same,T/C,"dose: 100.0 mg/kg/injection, schedule: Q04DX003 (ip), vehicle: saline with Tween-80",95 % of control
same,T/C,"dose: 200.0 mg/kg/injection, schedule: Q04DX003 (ip), vehicle: saline with Tween-80",104 % of control
COc1ccc2c(c1OC)C(=O)N1CCc3cc4c(cc3C1C2C(=O)O)OCO4 (stereo not drawn),T/C,"dose: 50.0 mg/kg/injection, schedule: Q04DX003 (ip), vehicle: distilled water + Tween-80",100 % of control
same,T/C,"dose: 100.0 mg/kg/injection, schedule: Q04DX003 (ip), vehicle: distilled water + Tween-80",109 % of control
same,T/C,"dose: 200.0 mg/kg/injection, schedule: Q04DX003 (ip), vehicle: distilled water + Tween-80",100 % of control
same,T/C,"dose: 400.0 mg/kg/injection, schedule: Q04DX003 (ip), vehicle: distilled water + Tween-80",104 % of control
O=c1[nH]c2n[nH]c(=S)n2c2c1CCCC2,T/C,"dose: 50.0 mg/kg/injection, schedule: Q04DX002 (ip), vehicle: saline with Tween-80",99 % of control
same,T/C,"dose: 100.0 mg/kg/injection, schedule: Q04DX002 (ip), vehicle: saline with Tween-80",97 % of control
same,T/C,"dose: 200.0 mg/kg/injection, schedule: Q04DX002 (ip), vehicle: saline with Tween-80",99 % of control
CCCCCN(CCCCC)CCC(O)c1cccc2ccccc12 (stereo not drawn),T/C,"dose: 12.5 mg/kg/injection, schedule: Q01DX005 (ip), vehicle: saline with Tween-80",100 % of control
same,T/C,"dose: 25.0 mg/kg/injection, schedule: Q01DX005 (ip), vehicle: saline with Tween-80",105 % of control
same,T/C,[1],103 % of control and 113 % of control
COc1ccc(-c2cn(-c3ccc(I)cc3)c3ncnc(N)c23)cc1,T/C,[2],99 % of control
same,T/C,[3],105 % of control
same,T/C,[4],90 % of control
Nc1cccc2nccn12,T/C,"dose: 12.5 mg/kg/injection, schedule: Q01DX009 (ip), vehicle: saline",105 % of control
same,T/C,"dose: 25.0 mg/kg/injection, schedule: Q01DX009 (ip), vehicle: saline",102 % of control
same,T/C,[9],104 % of control and 95 % of control
O=C(N/N=C/c1cc(Cl)cc(Cl)c1[O-])c1ccccc1.O=C(N/N=C/c1cc(Cl)cc(Cl)c1[O-])c1ccccc1.[Ni+2],T/C,[11],93 % of control
same,T/C,[12],92 % of control
same,T/C,"dose: 400.0 mg/kg/injection, schedule: Q01DX001 (ip), vehicle: saline with Tween-80",107 % of control
CCc1nc(N)nc(N)c1-c1ccc2nnn(O)c2c1,T/C,"dose: 50.0 mg/kg/injection, schedule: Q01DX005 (ip), vehicle: Klucel (hydroxypropylcellulose) (HPC)",98 % of control
same,T/C,"dose: 100.0 mg/kg/injection, schedule: Q01DX005 (ip), vehicle: Klucel (hydroxypropylcellulose) (HPC)",96 % of control
same,T/C,"dose: 200.0 mg/kg/injection, schedule: Q01DX005 (ip), vehicle: Klucel (hydroxypropylcellulose) (HPC)",105 % of control
CCOC(=O)c1cc[nH]c1CC(=O)NC,T/C,"dose: 25.0 mg/kg/injection, schedule: Q01DX001 (ip), vehicle: saline with Tween-80",98 % of control and 107 % of control
same,T/C,"dose: 50.0 mg/kg/injection, schedule: Q01DX001 (ip), vehicle: saline with Tween-80",102 % of control and 105 % of control
same,T/C,[11],103 % of control and 113 % of control
same,T/C,[12],113 % of control and 116 % of control
